This is an account of results in ChEMBL document CHEMBL1131457, “cis-[PtCl2(4,7-H-5-methyl-7-oxo[1,2,4]triazolo[1,5-a]pyrimidine)2]: a sterically restrictive new cisplatin analogue. Reaction kinetics with model nucleobases, DNA interaction studies, antitumor activity, and structure-activity relationships” (J Med Chem, 1998).

Common to all, as to assay type: functional, cell-based
Test [1] deals with A121. Nature of the test: Dose at which compound exhibits cytotoxicity in the A121 ovarian carcinoma cell line. As to conditions: Homo sapiens.
Test [2] deals with A121. Nature of the test: Cytotoxic effect (tumor cell growth inhibition) on the human cell line A121 ovarian carcinoma at the dose of […].
In test [3] the test system is A121. Nature of the test: Cytotoxic effect (tumor cell growth inhibition) on the human cell line A121 ovarian carcinoma at the dose of […].
For test [4], the system named is MCF7. In words: Cytotoxic effect (tumor cell growth inhibition) on the human cell line MCF-7 breast carcinoma at a dose of […].
Test [5] relates to MCF7. In words: Dose at which compound exhibits cytotoxicity in the MCF-7 cell line. The following applies: Homo sapiens.

Turning to cis-[PtCl2(Hmtpo-N3)2].2H2O, the ID50 stood at 14.3 µM with A121 [1] and 33.4 µM in the test with MCF7 [5]. The Cytotoxic effect in the test on A121 [2] worked out at 53%; with A121 [3] it was 84%; in the test on MCF7 [4], 54.8%.
